Read-outs that look alike come from different tables or passages of the source.
Columns and labels:
S. aureus SA 29213 = assay: 55Fe transport assay (intracellular iron accumulation); format: cell-based, Staphylococcus aureus; conditions: for ^55Fe Accm.: compound at 2 μg/ml, S. aureus SA 29213
Description: Next, investigated was whether INF 401 affects intracellular iron accumulation. An ^55Fe transport assay (modified from Sebulsky, 2000) was used to examine the ability of INF 401 to transport iron inside the cell. Briefly, exponentially growing cells were diluted to OD600 0.1 in LB, incubated with ^55FeCl3 for 30 min at 37° C., washed and counted in scintillation fluid using the tritium channel of a scintillation system. […] However, the presence of INF 401 in either the absence or presence of antibiotic led to a dramatic increase in iron accumulation (209,215 and 231,621 DPM, respectively).
(§1) Activity of the compound is depicted as the minimal concentration required to kill 99.9% of S. aureus in the presence of 4 μg/ml erythromycin.

S. aureus strain SA1199 = assay: Screening and titration of potentiators with erythromycin (4 μg/ml), viability read by transfer to fresh medium; format: cell-based, Staphylococcus aureus; conditions: for Activity (minimal concentration required to kill 99.9% of S. aureus): in the presence of 4 μg/ml erythromycin
Description: In an exemplary screening assay, in order to identify a candidate acyl hydrazide, oxy amide or 8-hydroxy quinoline composition as an antibacterial agent potentiator, the S. aureus strain SA1199 may be used. The procedure for screening is as follows: logarithmically growing S. aureus SA1199 are inoculated to a final OD600 of 0.002 into 150 μl of LB medium containing a bacteriostatic concentration of an antimicrobial agent for that strain, for example, erythromycin (4 μg/ml) at four times the Minimal Inhibitory
Concentration (MIC). […] In preliminary studies the inventors determined that under these conditions up to 2000 viable cells were transferred after incubation with erythromycin. As confirmed by broth microdilution, at least a 1000-fold reduction in viability was required to see no visible growth after 20 hours. Acyl hydrazide, oxy amide or 8-hydroxy quinoline antibiotic potentiators may be identified as those compounds that increase the bactericidal effect of the erythromycin.
The macrolide erythromycin was chosen in the initial screen for two reasons: first, its mechanism of inhibition of protein synthesis is well characterized and second, as a macrolide, erythromycin is representative of an expanding class of agents which includes the second most prescribed antibiotic, azithromycin.
In preliminary studies the inventors determined that under these conditions up to 2000 viable cells were transferred after incubation with erythromycin. As confirmed by broth microdilution, at least a 1000-fold reduction in viability was required to see no visible growth after 20 h.
Next the activity of the hit compounds was compared by titration of the compounds in the presence of erythromycin at 4 μg/ml as described above.
as §1

S. aureus SA1199 [1] = assay: Checkerboard two-fold broth microdilution, MIC and MBC; format: cell-based, Staphylococcus aureus; conditions: Table 2, plus 10 μg/ml INF 402, unit not given
S. pneumoniae = assay: Bactericidal activity (MBC) of translational inhibitors with or without INF 401 in S. pneumoniae; format: cell-based, Streptococcus pneumoniae; conditions: antibiotic alone
Source text: It would be desirable that an antibiotic potentiator of the present invention is active not only in S. aureus but also in other bacterial pathogens. The inventors have begun studies to investigate whether INF 401 can also potentiate the activity of translational inhibitors in another Gram positive pathogen, S. pneumoniae.

S. aureus (SA1199) = assay: Time kill studies (CFU counts); format: cell-based, Staphylococcus aureus; conditions: antibiotic 1×MIC + 5 μg/ml INF 401
Description: FIG. 5A, FIG. 5B and FIG. 5C. […]
The initial inoculum number was determined by plating an appropriate dilution on LB agar plates and determining the number of colony forming units (CFUs). At different time points an aliquot was withdrawn from each tube and cell viability was determined by plating an appropriate dilution and counting CFUs after overnight incubation.

S. aureus SA1199 [2] = assay: Checkerboard two-fold broth microdilution, MIC and MBC; format: cell-based, Staphylococcus aureus; conditions: for MBC: antibiotic alone; for MBC^b = MBC in the presence of 5 μg/ml of INF 401: Table 1, plus 5 μg/ml INF 401, unit not given
Description: Checkerboard titration was performed with INF 401 and erythromycin to quantitate the effects of the combination on Staphylococcal growth using two-fold serial broth microdilution. After overnight incubation, cells were transferred to fresh medium, as described above, to determine those combinations that were bactericidal to S. aureus. […] Although not determined according to NCCLS recommended procedures ([…]), the inventors considered this the Minimal Bactericidal Concentration (MBC).
The inventors next evaluated whether INF 401 was bactericidal in combination with other protein synthesis inhibitors which are bacteriostatic to S. aureus. Checkerboard studies were performed with two-fold dilutions of each antibiotic in combination with INF 401 using the assay described above in Example 2. After overnight incubation the MIC of each antibiotic was determined by visualization of bacterial growth. […] The MBC of each antibiotic was determined as described in Example 2 in the absence or presence of INF 401.

[3] = test system: S. aureus strain ATTC 29213; assay: Characterization of killing by INF 401 plus chloramphenicol (viability, morphology, protein, DNA, metal dependence); format: cell-based, Staphylococcus aureus; conditions: chloramphenicol 20 μg/ml or INF 401 2 μg/ml alone
Description: Time kill study of the effect of NF 401 in combination with chloramphenicol. Exponentially growing cells (S. aureus strain 29213) were diluted to OD600 0.1 in LB supplemented with 20 μg/ml of chloramphenicol (Cm) in the presence or absence of INF 401 (2 μg/ml) and incubated with shaking at 37° C. At indicated time points cells were harvested, washed with LB and plated on LB agar plates. Number of colony forming units (CFUs) was determined after overnight incubation.
Time kill study of the effect of iron on the bactericidal activity of INF 401. S. aureus strain 29213 was grown overnight in iron-limited Staphylococcal Siderophore Detection (SSD) medium (Heinrichs, 1999) supplemented with 2 μM FeCl3, washed with SSD and diluted 1:100 into the fresh medium containing 0, 2 or 50 μm FeCl3. Exponentially growing cells were diluted to OD600 0.01 in the corresponding medium supplemented when indicated with 20 μg/ml of chloramphenicol (Cm) and 2 μg/ml of INF 401. At 0, 1, 2 and 3.5 hours cells were plated in different dilutions to the LB agar plates and number of colony forming units (CFUs) was counted next day.

S. aureus ATCC 29213 = assay: MBEC assay system, checkerboard: planktonic MIC and biofilm MBEC; format: cell-based, Staphylococcus aureus; conditions: INF 401 at 0.3 μg/ml where in label
Description: These studies were performed via the method of Dr. Howard Ceri (University of Calgary), who recently developed a method for the routine determination of the antibiotic susceptibility of biofilms. To date, the inventors have tested the effect of the combination of INF 401 on the ability of either clindamycin or rifampin to eradicate S. aureus biofilms in vitro. S. aureus ATCC 29213 was selected for the study as previous studies of this isolate as a biofilm had been conducted and the isolate served as a quality assurance organism for NCCLS standardization of antibiotic testing. Biofilms were formed as previously described for this organism (Ceri et al., 1999) using the MBEC™ assay system. Checkerboard studies were performed with each antibiotic versus INF 401.

[4] = Staphylococcus aureus, SA1199, read-out: MBC^a = MBC in the absence of INF 401, Table 1, S. aureus SA1199, unit inferred
[5] = Staphylococcus aureus, SA1199, read-out: MBC^a = MBC in the absence of INF 401, Table 2, S. aureus SA1199, unit inferred

SMILES: O=C(N/N=C/c1c(O)ccc2ccccc12)Nc1ccccc1
- ^55Fe Accm. (S. aureus SA 29213): 14,400 DPM
- Activity (minimal concentration required to kill 99.9% of S. aureus) (S. aureus strain SA1199): 0.3 µg/mL

SMILES: CN(C)[C@@H]1C(O)=C(C(N)=O)C(=O)[C@@]2(O)C(O)=C3C(=O)c4c(O)cccc4[C@@](C)(O)[C@H]3C[C@@H]12 [Tetracycline]
- MBC^b = MBC in the presence of 10 μg/ml of INF 402 (S. aureus SA1199 [1]): 2
- bactericidal concentration in the absence of INF 401 as multiple of MIC (S. pneumoniae): 4 ×MIC
- reduction in cell viability, antibiotic in combination with INF 401 (S. aureus (SA1199)): 3 log10
- MBC (S. aureus SA1199 [2]; [4]): 8 µg/mL
- MBC (S. aureus SA1199 [2]; [5]): > 8 µg/mL
- MBC^b = MBC in the presence of 5 μg/ml of INF 401 (S. aureus SA1199 [2]; S. aureus SA1199): 0.25

SMILES: Cc1ccc(CNC(=O)N/N=C/c2c(O)ccc3ccccc23)cc1
- ^55Fe Accm. (S. aureus SA 29213): 9,100 DPM
- Activity (minimal concentration required to kill 99.9% of S. aureus) (S. aureus strain SA1199): 1.25 µg/mL

SMILES: Cc1cc(C)c2ccc(NN)nc2c1O [INF 406]
- lowest concentration at which the potentiator is active (titration in the presence of erythromycin) (S. aureus strain SA1199; erythromycin 4 μg/ml, S. aureus SA1199): 0.6 µg/mL
- effect on viability of S. aureus in combination with a bacteriostatic concentration of erythromycin (S. aureus strain SA1199; library screen hit): reduced the viability

SMILES: O=C(N[C@H](CO)[C@H](O)c1ccc([N+](=O)[O-])cc1)C(Cl)Cl [Chloramphenicol]
- effect of single agent on DNA integrity [3]: did not affect DNA integrity
- MBC^b = MBC in the presence of 10 μg/ml of INF 402 (S. aureus SA1199 [1]): 8
- bactericidal concentration in the absence of INF 401 as multiple of MIC (S. pneumoniae): 2 ×MIC
- amount of ^55Fe accumulated by cells, single agent (S. aureus SA 29213; LB, ^55FeCl3 30 min 37° C., chloramphenicol alone or INF 401 in absence of antibiotic): 4,976 DPM
- reduction in cell viability, antibiotic in combination with INF 401 (S. aureus (SA1199)): 3 log10
- MIC (S. aureus SA1199 [2]; Staphylococcus aureus, SA1199): 8 µg/mL
- MBC (S. aureus SA1199 [2]; [4]): > 64 µg/mL
- MBC (S. aureus SA1199 [2]; [5]): > 64 µg/mL
- MBC^b = MBC in the presence of 5 μg/ml of INF 401 (S. aureus SA1199 [2]; S. aureus SA1199): 4
- MIC (S. aureus SA1199 [2]; Table 2, S. aureus SA1199, unit inferred): 8 µg/mL

SMILES: CO[C@H]1/C=C/O[C@@]2(C)Oc3c(C)c(O)c4c(O)c(c(/C=N/N5CCN(C)CC5)c(O)c4c3C2=O)NC(=O)/C(C)=C\C=C\[C@H](C)[C@H](O)[C@@H](C)[C@@H](O)[C@@H](C)[C@H](OC(C)=O)[C@@H]1C [Rifampin]
- MIC (S. aureus ATCC 29213; Staphylococcus aureus, ATCC29213, planktonic population): 0.0075 µg/mL
- MBEC (S. aureus ATCC 29213; biofilm population): >2 µg/mL
- MIC (S. aureus SA1199 [2]; Staphylococcus aureus, SA1199): 0.009 µg/mL
- MBC (S. aureus SA1199 [2]; [4]): 0.06 µg/mL
- MBC^b = MBC in the presence of 5 μg/ml of INF 401 (S. aureus SA1199 [2]; S. aureus SA1199): 0.0019

SMILES: Cc1cccc(CNC(=O)N/N=C/c2c(O)ccc3ccccc23)c1
- ^55Fe Accm. (S. aureus SA 29213): 1,500 DPM
- Activity (minimal concentration required to kill 99.9% of S. aureus) (S. aureus strain SA1199): >10 µg/mL

SMILES: COc1ccccc1NC(=O)N/N=C/c1c(O)ccc2ccccc12
- ^55Fe Accm. (S. aureus SA 29213): 1,900 DPM
- Activity (minimal concentration required to kill 99.9% of S. aureus) (S. aureus strain SA1199): >10 µg/mL

SMILES: CCOc1cccc(/C=N/NC(=O)Cc2ccc(C)cc2)c1O [drawing 38]
- ^55Fe Accm. (S. aureus SA 29213): 17,400 DPM
- Activity (minimal concentration required to kill 99.9% of S. aureus) (S. aureus strain SA1199): 1.25 µg/mL

— patent US20050043369A1, “Bactericidal antimicrobial methods and compositions for use in treating gram positive infections” (Protez Pharmaceuticals Inc., priority 2000, published 2005)
